Assay results as given in patent US20180042882A1, “C16:1n7-PALMITOLEATE AND DERIVATIVES THEREOF FOR TREATING OBESITY, PROMOTING WEIGHT LOSS, AND SUPPORTING WEIGHT MANAGEMENT” (Tersus Life Sciences, LLC, priority 2015, published 2018).

Key:
bovine adipocytes [1] = experiment: Fatty acid composition of bovine adipocyte cultures with exogenous palmitoleic acid (GLC); assay type: cell-based; settings: P<0.05
Text: (§1) Bovine adipocyte cultures were used to determine if addition of exogenous palmitoleic acid (C16:1n7) altered lipogenesis in vitro (Burns et al., 2012a). Adipocytes were harvested from the bovine cultures on day 6 and day 12 and analyzed using GLC and qPCR. […] In contrast, increasing concentrations of palmitoleic acid led to a decrease in palmitic acid (C16:0), stearic acid (C18:0), and oleic acid (C18:1) levels (P<0.05). FIG. 2 illustrates de novo lipogenesis and β-oxidation in an adipocyte after exogenous palmitoleic acid addition.
(§2) The desaturation ratio of C18:1 cis-9/C18:0 decreased (P<0.05) in response to increasing concentrations of palmitoleic acid, which was consistent with the observed decrease in SCD-1 mRNA expression.

SCD-1 = experiment: qPCR mRNA expression in bovine adipocyte cultures; assay type: cell-based; settings: compared to untreated control cells; P<0.05
Text: as §1, §2

ELOVL6 = experiment: qPCR mRNA expression in bovine adipocyte cultures; assay type: cell-based; settings: compared to untreated control cells; P<0.05
Text: as §1, §2

FASN = experiment: qPCR mRNA expression in bovine adipocyte cultures; assay type: cell-based; settings: compared to untreated control cells; P<0.05
Text: as §1, §2

[2] = Infusion of 13C16:1n7 in lambs, uptake and utilization; assay type: in vivo; settings: 5 mg/kg level, intravenous infusion
Procedure: This level of palmitoleic acid supplementation was selected based on previous experiments where lambs were infused with varying levels (0, 2, or 5 mg/kg) of ^13C16:1n7 to assess uptake and utilization in adipose tissues. […] This 5 mg/kg level is based on intravenous infusion levels and thus is adjusted for estimated ruminal bypass and intestinal absorption rates for dietary monounsaturated fatty acids for this oral feeding study.

[3] = tested on: Acyl-CoA dehydrogenase, long chain (ACADL); experiment: Expression of fatty acid oxidation genes in bovine adipocytes; assay type: cell-based; settings: normalized to EIF3K and UXT; P≦0.07
Text: (§3) The effect of palmitoleic acid supplementation on fatty acid oxidation in bovine adipocytes (see Kadegowda et al., 2011a) was examined by measuring the expression levels of Acyl-Coenzyme A oxidase 2 (ACOX2), Acyl-CoA dehydrogenase, long chain (ACADL), Phytanoyl-CoA 2-hydroxylase (PHYH), Caveolini (CAV1) and Adipose differentiation-related protein (ADEP). The geometric mean of Eukaryotic translation initiation factor 3, subunit k (EIF3K) and Ubiquitously expressed transcript (UXT) was used for normalization.

[4] = tested on: Phytanoyl-CoA 2-hydroxylase (PHYH); experiment: as above; assay type: cell-based; settings: normalized to EIF3K and UXT
Text: as §3

CTP-1 = experiment: Enzymes involved in β-oxidation after exogenous palmitoleic acid; assay type: cell-based, bovine; settings: addition of exogenous palmitoleic acid
Text: As such, C16:1n7-palmitoleate, derivatives thereof, pharmaceutically acceptable salts thereof, or a combination thereof, are useful in methods for reducing adipocyte hypertrophy and excess adipose tissue deposition.

bovine adipocytes [5] = experiment: Rate of lipogenesis with [1-13C]acetate in bovine adipocytes; assay type: cell-based; settings: 2.5 mM [1-13C]acetate on day 6; compared to controls
Text: as §2

bovine adipocytes [6] = experiment: Fatty acid levels and desaturation (13C18:0, GLC-MS) in fatty acid supplemented bovine adipocytes; assay type: cell-based; settings: P<0.05
Procedure: In addition, cells were incubated with ^13C2 and ^13C18:0 on day 6 to estimate lipogenic and desaturation rates using GLC-MS.

[7] = increasing concentrations of palmitoleic acid (50, 150 and 300 μM), day 6 and day 12
[8] = increasing concentrations of palmitoleic acid

With CCCCCC/C=C\CCCCCCCC(=O)O [palmitoleic acid] the “desaturation ratio of C18:1 cis-9/C18:0” value (bovine adipocytes [1]; in response to increasing concentrations of palmitoleic acid) was “decreased”, the “cis-11 vaccenic acid (C18:1c11) levels in adipocytes” value (bovine adipocytes [1]; [7]) was “linear increase” and the “cis-13 eicosenoic acid (C20:1c13) levels in adipocytes” value (bovine adipocytes [1]; [7]) was “linear increase”. For the same compound, the “total fatty acid levels in adipocytes” value (bovine adipocytes [1]; [7]) was “linear increase”, the “Palmitoleic acid levels in adipocytes” value (bovine adipocytes [1]; increasing concentrations of palmitoleic acid (50, 150 and 300 μM), harvested day 6 and day 12) was “linear increase” and the “oleic acid (C18:1) levels in adipocytes” value (bovine adipocytes [1]; [8]) was “decrease”. The “palmitic acid (C16:0) levels in adipocytes” value (bovine adipocytes [1]; [8]) was “decrease”, the “stearic acid (C18:0) levels in adipocytes” value (bovine adipocytes [1]; [8]) was “decrease” and the “SCD-1 mRNA expression levels” value (SCD-1) was “reduction”. For the same compound, the “ELOVL6 mRNA expression levels” value (ELOVL6) was “reduction”, the “FASN mRNA expression levels” value (FASN) was “reduction” and the blood glucose levels ([2]; compared to control) was “altered”. For the same compound, the “concentrations of 13C16:1n7 in serum” value ([2]; lambs infused with 0, 2, or 5 mg/kg) was “greatest concentrations”, the “increase in ACADL expression” value [3] was 2.36 fold and the “increase in PHYH expression” value [4] was 95.5 fold. The “CTP-1 (enzyme involved in β-oxidation) regulation” value (CTP-1) was “upregulates”, the rate of lipogenesis (bovine adipocytes [5]) was “lower rate of lipogenesis” and the “13C18:1 cis-9 levels” value (bovine adipocytes [6]; after 12 h of 13C18:0 incubation, compared with all other treatments) was “lower”. For the same compound, the “C18:1 cis-9/C18:0 ratio” value (bovine adipocytes [6]; compared with all other treatments) was “lower”, the “C16: levels in supplemented cells” value (bovine adipocytes [6]; compared with control cells) was “elevated” and the “C18:1 cis-11 levels in supplemented cells” value (bovine adipocytes [6]; compared with control cells) was “elevated”. For the same compound, the “C20:1 cis-13 levels in supplemented cells” value (bovine adipocytes [6]; compared with control cells) was “elevated”.
